Tests used:
wheat (winter wheat) = test: Test C preemergence; assay type: in vivo, Triticum aestivum; settings: for Wheat plant response rating (0 to 100): Preemergence, visual rating after 13 to 15 d; for Plant response rating (scale of 0 to 100 where 0 is no effect and 100 is complete control): Wheat, preemergence, 250 g ai/ha
Source text: (§1) Seeds of plant species selected from blackgrass (Alopecurus myosuroides), ryegrass, Italian (Italian ryegrass, Lolium multiflorum), wheat (winter wheat, Triticum aestivum), galium (catchweed bedstraw, Galium aparine), corn (Zea mays), crabgrass, large (large crabgrass, Digitaria sanguinalis), foxtail, giant, (giant foxtail, Setaria faberii), johnsongrass (Sorghum halepense), lambsquarters (Chenopodium album), morningglory (Ipomoea coccinea), nutsedge, yellow (yellow nutsedge, Cyperus esculentus), pigweed (Amaranthus retroflexus), ragweed (common ragweed, Ambrosia elatior), soybean (Glycine max), barnyardgrass (Echinochloa crus-galli), oilseed rape (Brassica napus), waterhemp (common waterhemp, Amaranthus rudis), and velvetleaf (Abutilon theophrasti) were planted into a blend of loam soil and sand and treated preemergence with test chemicals formulated in a non-phytotoxic solvent mixture which included a surfactant. At the same time, plants selected from these crop and weed species and also chickweed (common chickweed, Stellaria media), oat, wild (wild oat, Avena fatua), and kochia (Kochia scoparia), were planted in pots containing Sunshine Redi-Earth® planting medium comprising spaghnum peat moss, vermiculite, starter nutrients and dolomitic limestone and treated with postemergence applications of test chemicals formulated in the same manner. Plants ranged in height from 2 to 18 cm (1- to 4-leaf stage) for postemergence treatments. […] A dash (-) response means no test result.

corn = test: Test C preemergence; assay type: in vivo, Zea mays; settings: for Plant response rating (scale of 0 to 100 where 0 is no effect and 100 is complete control): Corn, preemergence; for Corn plant response rating (0 to 100): Preemergence, visual rating after 13 to 15 d
Source text: as §1

morningglory = test: Test C preemergence; assay type: in vivo, Ipomoea coccinea; settings: for Plant response rating (scale of 0 to 100 where 0 is no effect and 100 is complete control): Morningglory, preemergence; for Morningglory plant response rating (0 to 100): Preemergence, visual rating after 13 to 15 d
Source text: as §1

barnyardgrass = test: Test C preemergence; assay type: in vivo, Echinochloa crus-galli; settings: for Plant response rating (scale of 0 to 100 where 0 is no effect and 100 is complete control): Barnyardgrass, preemergence; for Barnyardgrass plant response rating (0 to 100): Preemergence, visual rating after 13 to 15 d
Source text: as §1

oilseed rape = test: Test C preemergence; assay type: in vivo, Brassica napus; settings: for Plant response rating (scale of 0 to 100 where 0 is no effect and 100 is complete control): Oilseed Rape, preemergence; for Oilseed Rape plant response rating (0 to 100): Preemergence, visual rating after 13 to 15 d
Source text: as §1

bluegrass = test: Test D preemergence; assay type: in vivo, Poa annua; settings: for Plant response rating (0 to 100), Bluegrass: 16 g ai/ha, 0 is no effect, 100 is complete control; for Plant response rating: Bluegrass: scale 0 to 100
Source text: (§2) Seeds of plant species selected from bluegrass (annual bluegrass, Poa annua), blackgrass (Alopecurus myosuroides), canarygrass (Phalaris minor), chickweed (common chickweed, Stellaria media), galium (catchweed bedstraw, Galium aparine), bromegrass, down (downy bromegrass, Bromus tectorum), Russian thistle (Salsola kali), field poppy (Papaver rhoeas), field violet (Viola arvensis), foxtail, green (green foxtail, Setaria viridis), deadnettle (henbit deadnettle, Lamium amplexicaule), ryegrass, Ital. (Italian ryegrass, Lolium multiflorum), kochia (Kochia scoparia), lambsquarters (Chenopodium album), oilseed rape (Brassica napus), pigweed (Amaranthus retroflexus), chamomile (scentless chamomile, Matricaria inodora), speedwell (bird's-eye speedwell, Veronica persica), barley, spring (spring barley, Hordeum vulgare), wheat, spring (spring wheat, Triticum aestivum), buckwheat, wild (wild buckwheat, Polygonum convolvulus), wild mustard (Sinapis arvensis), oat, wild (wild oat, Avena fatua), radish, wild (wild radish, Raphanus raphanistrum), […]), barley, winter (winter barley, Hordeum vulgare), and wheat, winter (winter wheat, Triticum aestivum) were planted into a silt loam soil and treated preemergence with test chemicals formulated in a non-phytotoxic solvent mixture which included a surfactant. At the same time, these species were planted in pots containing Sunshine Redi-Earth® planting medium comprising spaghnum peat moss, vermiculite, starter nutrients and dolomitic limestone and treated with postemergence applications of the test chemicals formulated in the same manner. Plants ranged in height from 2 to 18 cm (1- to 4-leaf stage). Treated plants and controls were maintained in a controlled growth environment for 14 to 21 d after which time all species were compared to controls and visually evaluated. […] A dash (-) response means no test result.

Russian thistle = test: Test D preemergence; assay type: in vivo, Salsola kali; settings: for Plant response rating (0 to 100), Russian Thistle: 16 g ai/ha, 0 is no effect, 100 is complete control; for Plant response rating: Russian Thistle: scale 0 to 100
Source text: as §2

field violet = test: Test D preemergence; assay type: in vivo, Viola arvensis; settings: for Plant response rating (0 to 100), Field Violet: 16 g ai/ha, 0 is no effect, 100 is complete control; for Plant response rating: Field Violet: scale 0 to 100
Source text: as §2

foxtail, green = test: Test D preemergence; assay type: in vivo, Setaria viridis; settings: for Plant response rating (0 to 100), Foxtail, Green: 16 g ai/ha, 0 is no effect, 100 is complete control; for Plant response rating: Foxtail, Green: scale 0 to 100
Source text: as §2

kochia = test: Test D preemergence; assay type: in vivo, Kochia scoparia; settings: for Plant response rating (0 to 100), Kochia: 16 g ai/ha, 0 is no effect, 100 is complete control; for Plant response rating: Kochia: scale 0 to 100
Source text: as §2

SMILES: FC(F)(F)COc1nc(-c2ccccc2)nn1Cc1ccnc(C(F)(F)F)c1 [Compound 24]
- Wheat plant response rating (0 to 100) (wheat (winter wheat); 31 g ai/ha): 0
- Wheat plant response rating (0 to 100) (wheat (winter wheat); 62 g ai/ha): 0
- Plant response rating (scale of 0 to 100 where 0 is no effect and 100 is complete control) (wheat (winter wheat)): 5
- Plant response rating (scale of 0 to 100 where 0 is no effect and 100 is complete control) (corn; 125 g ai/ha): 25
- Plant response rating (scale of 0 to 100 where 0 is no effect and 100 is complete control) (corn; 250 g ai/ha): 40
- Corn plant response rating (0 to 100) (corn; 31 g ai/ha): 0
- Corn plant response rating (0 to 100) (corn; 62 g ai/ha): 10
- Plant response rating (scale of 0 to 100 where 0 is no effect and 100 is complete control) (morningglory; 125 g ai/ha): 35
- Plant response rating (scale of 0 to 100 where 0 is no effect and 100 is complete control) (morningglory; 250 g ai/ha): 40
- Morningglory plant response rating (0 to 100) (morningglory; 31 g ai/ha): 10
- Morningglory plant response rating (0 to 100) (morningglory; 62 g ai/ha): 30
- Plant response rating (scale of 0 to 100 where 0 is no effect and 100 is complete control) (barnyardgrass; 125 g ai/ha): 80
- Plant response rating (scale of 0 to 100 where 0 is no effect and 100 is complete control) (barnyardgrass; 250 g ai/ha): 85
- Barnyardgrass plant response rating (0 to 100) (barnyardgrass; 31 g ai/ha): 10
- Barnyardgrass plant response rating (0 to 100) (barnyardgrass; 62 g ai/ha): 45
- Plant response rating (scale of 0 to 100 where 0 is no effect and 100 is complete control) (oilseed rape; 125 g ai/ha): 35
- Plant response rating (scale of 0 to 100 where 0 is no effect and 100 is complete control) (oilseed rape; 250 g ai/ha): 98
- Oilseed Rape plant response rating (0 to 100) (oilseed rape; 31 g ai/ha): 5
- Oilseed Rape plant response rating (0 to 100) (oilseed rape; 62 g ai/ha): 30
- Plant response rating (0 to 100), Bluegrass (bluegrass): 20
- Plant response rating: Bluegrass (bluegrass; 31 g ai/ha): 75
- Plant response rating: Bluegrass (bluegrass; 62 g ai/ha): 80
- Plant response rating: Bluegrass (bluegrass; 125 g ai/ha): 98
- Plant response rating (0 to 100), Russian Thistle (Russian thistle): 65
- Plant response rating: Russian Thistle (Russian thistle; 62 g ai/ha): 85
- Plant response rating: Russian Thistle (Russian thistle; 125 g ai/ha): 85
- Plant response rating (0 to 100), Field Violet (field violet): 0
- Plant response rating: Field Violet (field violet; 62 g ai/ha): 80
- Plant response rating: Field Violet (field violet; 125 g ai/ha): 100
- Plant response rating (0 to 100), Foxtail, Green (foxtail, green): 75
- Plant response rating: Foxtail, Green (foxtail, green; 62 g ai/ha): 98
- Plant response rating: Foxtail, Green (foxtail, green; 125 g ai/ha): 100
- Plant response rating (0 to 100), Kochia (kochia): 85
- Plant response rating: Kochia (kochia; 62 g ai/ha): 90
- Plant response rating: Kochia (kochia; 125 g ai/ha): 90

SMILES: CCOc1nc(-c2ccccc2)nn1Cc1ccnc(C(F)(F)F)c1 [Compound 27]
- Wheat plant response rating (0 to 100) (wheat (winter wheat); 31 g ai/ha): 20
- Wheat plant response rating (0 to 100) (wheat (winter wheat); 62 g ai/ha): 25
- Plant response rating (scale of 0 to 100 where 0 is no effect and 100 is complete control) (wheat (winter wheat)): 60
- Plant response rating (scale of 0 to 100 where 0 is no effect and 100 is complete control) (corn; 125 g ai/ha): 55
- Plant response rating (scale of 0 to 100 where 0 is no effect and 100 is complete control) (corn; 250 g ai/ha): 60
- Corn plant response rating (0 to 100) (corn; 31 g ai/ha): 25
- Corn plant response rating (0 to 100) (corn; 62 g ai/ha): 40
- Plant response rating (scale of 0 to 100 where 0 is no effect and 100 is complete control) (morningglory; 125 g ai/ha): 100
- Plant response rating (scale of 0 to 100 where 0 is no effect and 100 is complete control) (morningglory; 250 g ai/ha): 95
- Morningglory plant response rating (0 to 100) (morningglory; 31 g ai/ha): 20
- Morningglory plant response rating (0 to 100) (morningglory; 62 g ai/ha): 80
- Plant response rating (scale of 0 to 100 where 0 is no effect and 100 is complete control) (barnyardgrass; 125 g ai/ha): 100
- Plant response rating (scale of 0 to 100 where 0 is no effect and 100 is complete control) (barnyardgrass; 250 g ai/ha): 100
- Barnyardgrass plant response rating (0 to 100) (barnyardgrass; 31 g ai/ha): 70
- Barnyardgrass plant response rating (0 to 100) (barnyardgrass; 62 g ai/ha): 90
- Plant response rating (scale of 0 to 100 where 0 is no effect and 100 is complete control) (oilseed rape; 125 g ai/ha): 100
- Plant response rating (scale of 0 to 100 where 0 is no effect and 100 is complete control) (oilseed rape; 250 g ai/ha): 100
- Oilseed Rape plant response rating (0 to 100) (oilseed rape; 31 g ai/ha): 90
- Oilseed Rape plant response rating (0 to 100) (oilseed rape; 62 g ai/ha): 90
- Plant response rating (0 to 100), Bluegrass (bluegrass): 20
- Plant response rating: Bluegrass (bluegrass; 31 g ai/ha): 55
- Plant response rating: Bluegrass (bluegrass; 62 g ai/ha): 85
- Plant response rating: Bluegrass (bluegrass; 125 g ai/ha): 100
- Plant response rating (0 to 100), Russian Thistle (Russian thistle): 75
- Plant response rating: Russian Thistle (Russian thistle; 62 g ai/ha): 85
- Plant response rating: Russian Thistle (Russian thistle; 125 g ai/ha): 85
- Plant response rating (0 to 100), Field Violet (field violet): 85
- Plant response rating: Field Violet (field violet; 62 g ai/ha): 98
- Plant response rating: Field Violet (field violet; 125 g ai/ha): 100
- Plant response rating (0 to 100), Foxtail, Green (foxtail, green): 95
- Plant response rating: Foxtail, Green (foxtail, green; 62 g ai/ha): 100
- Plant response rating: Foxtail, Green (foxtail, green; 125 g ai/ha): 100
- Plant response rating (0 to 100), Kochia (kochia): 85
- Plant response rating: Kochia (kochia; 62 g ai/ha): 95
- Plant response rating: Kochia (kochia; 125 g ai/ha): 100
